Data reported in patent publication US9045505B2, “Nitric oxide donors” (University of Otago, priority 2006, dated 2015).

What was measured:
rat liver mitochondria = test: Membrane potential-dependent uptake into isolated mitochondria (TPP-selective electrode); type: biochemical; conditions: energized with 10 mM succinate, reversed by FCCP
Description: FIG. 8 is a trace showing the uptake of MitoSNAP and MitoNAP by energized mitochondria measured using an ion-selective electrode. For (a) and (b) mitochondria (2 mg protein/ml) were incubated in KCl buffer supplemented with rotenone in a stirred 3 ml chamber thermostatted at 37° C. and shielded from ambient light. An electrode selective for the TPP cation was inserted and calibrated by five sequential 1 μM additions of MitoNAP (a) or MitoSNAP (b). Succinate (10 mM) was then added to energize the mitochondria, followed by the uncoupler FCCP (0.5 μM). Rapid uptake of MitoNAP by energized mitochondria was observed and this was reversed by abolishing the membrane potential with the uncoupler FCCP (a). Energised mitochondria also rapidly accumulated MitoSNAP (b). However, in contrast to MitoNAP, uncoupling apparently led to only partial release of the accumulated MitoSNAP (b). This apparent incomplete release of MitoSNAP on uncoupling is presumably because MitoSNAP is converted to MitoNAP within mitochondria and this generates a different response from the electrode.
Mitochondrial incubations were usually in KCl buffer (120 mM KCl, 10 mM HEPES, 1 mM EGTA, 100 μM N,N-bis(2-bis[carboxymethyl]aminoethyl) glycine (DTPA) and 10 μM neocuproine, pH 7.2) with 10 mM succinate and 4 μg/ml rotenone in the dark at 37° C., unless stated otherwise. An electrode selective for the TPP moiety of MitoSNAP and MitoNAP was made and used as described previously (Asin-Cayuela, J., Manas, A. R., James, A. M., Smith, R. A. & Murphy, M. P. Fine-tuning the hydrophobicity of a mitochondria-targeted antioxidant. FEBS Letts. 571, 9-16 (2004)). Respiration rates were measured in a Clark type O2 electrode (Rank Brothers, UK). To measure GSH and GSSG, mitochondria (1 mg protein/ml) were incubated with 0-10 μM MitoSNO1 or MitoNAP for 10 min, pelleted by centrifugation and the GSH and GSSG contents assessed by the recycling assay (Scarlett, J. L., Packer, M. A., Porteous, C. M. & Murphy, M. P. Alterations to glutathione and nicotinamide nucleotides during the mitochondrial permeability transition induced by peroxynitrite. Biochem. Pharmacol. 52, 1047-1055 (1996)). The measurement of exposed mitochondrial protein thiols is described below.
Rat liver mitochondria (1 mg protein/ml) in KCl buffer was incubated at 37° C. with 5 μM MitoSNO. 1 μM additions of MitoSNO were made sequentially before addition of 10 mM succinate. 200 nM FCCP was then added to uncouple the mitochondria. The concentrations of O2 and MitoSNO in solution were measured simultaneously using a Clark-type O2 electrode in combination with an ion-selective electrode for triphenylphosphonium cation (TPP^+). […] This can be seen in FIG. 3.
When succinate was added, the mitochondria started respiring and set up a Δψ, which caused a decrease in the MitoSNO concentration, as detected by the ion-selective electrode (FIG. 3). When the mitochondria were uncoupled by FCCP, a concomitant increase in the concentration of MitoSNO, or its derivatives, in the medium was detected by the ion-selective electrode. The amount of MitoSNO taken up into the mitochondria from the trace in FIG. 3 corresponds to ˜2.5 μM of the initial external concentration of 5 μM. Therefore 7.5 nmol MitoSNO have been taken up into 3 mg protein, and as the mitochondrial volume is ˜0.5 μl/mg protein (Brown, G. C. and Brand, M. D. Biochem J., 1985, 225, 399-405), the concentration of MitoSNO within mitochondria is ˜5 mM. This represents a 2000 fold concentration relative to the 2.5 μM present in the external medium, and is consistent with a Nernstian uptake of MitoSNO.

HeLa cells = test: Cell hypoxia experiment, extracellular pO2 by fluorescence quenching oximetry; type: cell-based; conditions: 1% O2, 30 min incubation, compared to untreated controls
Description: FIG. 10 is a series of traces and graphs showing the effect of MitoSNAP on respiration in cells. (a-d) Jurkat cells (55×10^6 cells) were incubated in PBS supplemented with 25 mM Hepes pH 7.2 (NaOH), 1 mM sodium pyruvate, 10 μM neocuproine and 100 μM DTPA in the stirred 2.5 ml chamber of an oxygen electrode at 37° C. with 5 μM MitoSNAP (a), MitoNAP (b), SNAP (c) or MitoSNAP and FCCP (500 nM) (d). Where indicated 5 μM OxyHb was added. Traces show typical experiments that were repeated at least three times. Sections of the 02 electrode trace where OxyHb was added for (a) and (b) have been expanded 4-fold in the vertical dimension to facilitate inspection. […] Cellular pO2 values, measured by fluorescence quenching oximetry and expressed as mean±sd, are shown. […]
HeLa cells were seeded and grown to 100% confluence with 15 ml medium/dish on 165 cm^2 dishes. […] Extracellular pO2 measurements were taken by fluorescence quenching oximetry (Oxylite-2000; Oxford Optronix). […]
To evaluate the selective uptake of MitoSNAP by mitochondria within cells, the effect of MitoSNAP on respiration by Jurkat cells, a T lymphocyte cell line that grows in suspension, was measured using an O2 electrode (FIG. 10). […] Then the effects of a further 30 min incubation with MitoSNAP, MitoNAP or the mitochondrial inhibitor myxathiazol on the steady-state extracellular pO2 was assessed by fluorescence quenching oximetry (FIG. 10e).

SMILES: CC(=O)NC(C(=O)NCCCCC[P+](c1ccccc1)(c1ccccc1)c1ccccc1)C(C)(C)SN=O.CS(=O)(=O)[O-] (centres unmarked) [MitoSNAP, [5-(2-acetylamino-3-methyl-3-nitrosothio-butyrylamino)-penty1]-triphenylphosphonium methanesulfonate]
- uptake by isolated mitochondria (rat liver mitochondria): significant Δψ-dependent uptake
- effect on steady-state extracellular pO2 during hypoxia (HeLa cells): increased extracellular O2
